In patent US20100063041A1, “NOVEL PHENYLPROPIONIC ACID DERIVATIVES AS PEROXISOME PROLIFERATOR-ACTIVATED GAMMA RECEPTOR MODULATORS, METHOD OF THE SAME, AND PHARMACEUTICAL COMPOSITION COMPRISING THE SAME” (priority 2007, published 2010):
Changes are numbered by the printed parent chain. One block for each compound: values may come before it.

Assays:
Experiment in all cases: transactivation assay (GAL4 chimeric receptor, luciferase) in CV-1 cells
Format in all cases: cell-based
Human PPAR-α = target: T1, Human PPAR-α (Homo sapiens, UniProt Q07869); settings: for Emax: CV-1, Relative Response % to maximum effects of the positive control drug, read-out: Max % Human PPAR-α; for EC50: CV-1 cells, GAL4 chimeric receptor, 24 hours
T1 construct: expressed in transfected cells; host or cells: CV-1 (CCL-70, ATCC)
T1 sequence (Q07869 239-466 limits assumed): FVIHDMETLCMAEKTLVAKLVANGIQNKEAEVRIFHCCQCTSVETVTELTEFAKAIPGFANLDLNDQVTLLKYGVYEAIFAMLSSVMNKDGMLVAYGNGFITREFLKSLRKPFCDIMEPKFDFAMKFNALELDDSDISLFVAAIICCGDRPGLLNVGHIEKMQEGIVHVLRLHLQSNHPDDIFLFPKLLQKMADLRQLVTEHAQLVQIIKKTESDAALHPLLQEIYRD
Protocol: (§1) Following induction of transient intracellular expression of PPAR-α and -γ, an ability of the inventive compounds to induce transactivation of PPARs via activation of each PPAR was evaluated as an efficacy of the compound (transactivation assay).
(§2) For this assay, the African green monkey kidney cell line CV-1 (CCL-70, ATCC) was used as a test cell line, and PPAR-α and -γ were murine- and human-derived PPARs. Samples used were compounds prepared in Examples 19, 21, 23, 25, 26, 27, 31, 33, 34, 36, 38, 40, 42, 43 and 50. As a positive control drug, 3-4-[2-(2-phenyl-4-methyl-1,3-oxazole)ethyloxy]phenyl-(2S)-[(1-methyl-3-oxo-3-phenyl)propenyl]aminopropionic acid was used that is a PPAR-α or -γ agonist which was once under development and whose clinical trials and studies were suspended at phase III. A chimeric receptor was adopted to circumvent the probable interference due to endogenous receptor activation (Jian-Shen Q. et al., Mol Cell Biol (1995) 15(3):1817-1825). The chimeric receptor was constructed as a fusion of a PPAR-α or -γ ligand-binding domain with a DNA-binding domain of GAL4 which is a yeast transactivator.
(§3) The CV-1 cells were transiently transfected with each of chimeric receptor-expressing DNA constructs and each of DNA constructs comprising 5 copies of the GAL4 DNA-binding domain and capable of inducing expression of firefly luciferase or Renilla luciferase using a Lipofectamine Plus reagent (Invitrogen, USA). After transfection for 3 hours, the culture media were replaced with DMEM containing the above samples and 10% fetal bovine serum. 24 hours later, the firefly luciferase activity and Renilla luciferase activity were continuously assayed while adding an equal amount of a dual luciferase assay reagent (Promega, USA) to the cell-containing media. The transfection efficiency was normalized against Renilla luciferase activity (Motomura W. et al., Int J Cancer (2004) 108(1):41-6). The PPAR-α and -γ activity was determined by calculating Relative Response % to maximum effects of the positive control drug, and conducting multiple dose evaluation of the inventive compounds to calculate EC50, which is the concentration of a drug which produces 50% activation relative to maximum effects of the inventive compounds, by nonlinear regression analysis.

Human PPAR-γ = target: T2, Human PPAR-γ (Homo sapiens, UniProt P37231); settings: for Emax: CV-1, Relative Response % to maximum effects of the positive control drug, read-out: Max % Human PPAR-γ; for EC50: CV-1 cells, GAL4 chimeric receptor, 24 hours
T2 construct: expressed in transfected cells; host or cells: CV-1 (CCL-70, ATCC)
T2 sequence (P37231 238-503 limits assumed): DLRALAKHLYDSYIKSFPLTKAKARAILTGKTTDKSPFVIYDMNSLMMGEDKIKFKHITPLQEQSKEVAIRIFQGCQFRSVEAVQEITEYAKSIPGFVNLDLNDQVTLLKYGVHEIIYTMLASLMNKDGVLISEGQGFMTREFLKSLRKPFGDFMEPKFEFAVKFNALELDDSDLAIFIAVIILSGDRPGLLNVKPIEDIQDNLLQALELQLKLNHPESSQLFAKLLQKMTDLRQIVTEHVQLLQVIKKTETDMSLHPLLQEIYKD
Protocol: as §1, §2, §3

Mouse PPAR-α = target: T3, Mouse PPAR-α (Mus musculus, UniProt P23204); settings: for Emax: CV-1, Relative Response % to maximum effects of the positive control drug, read-out: Max % Mouse PPAR-α; for EC50: CV-1 cells, GAL4 chimeric receptor, 24 hours
T3 construct: expressed in transfected cells; host or cells: CV-1 (CCL-70, ATCC)
T3 sequence (P23204 239-466 limits assumed): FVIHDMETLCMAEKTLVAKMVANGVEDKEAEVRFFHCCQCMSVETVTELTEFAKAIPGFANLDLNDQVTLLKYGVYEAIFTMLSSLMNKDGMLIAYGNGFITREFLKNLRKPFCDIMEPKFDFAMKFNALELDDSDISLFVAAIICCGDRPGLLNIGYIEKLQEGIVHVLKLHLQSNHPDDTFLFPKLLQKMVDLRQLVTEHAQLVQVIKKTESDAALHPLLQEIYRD
Protocol: as §1, §2, §3

Mouse PPAR-γ = target: T4, Mouse PPAR-γ (Mus musculus, UniProt P37238); settings: for Emax: CV-1, Relative Response % to maximum effects of the positive control drug, read-out: Max % Mouse PPAR-γ; for EC50: CV-1 cells, GAL4 chimeric receptor, 24 hours
T4 construct: expressed in transfected cells; host or cells: CV-1 (CCL-70, ATCC)
T4 sequence (P37238 238-503 limits assumed): T2 sequence (P37231 238-503 limits assumed) with S93N, V98I, S146N, L226V, Q245H
Protocol: as §1, §2, §3

SMILES: CCO[C@@H](Cc1ccc(OCc2sc(-c3ccc(C(=O)N4CCOCC4)cc3)cc2C)cc1)C(=O)O [Example 17, (S)-2-ethoxy-3-(4-((3-methyl-5-(4-(morpholino-4-carbonyl)phenyl)thiophen-2-yl)methoxy)phenyl)propionic acid]
Emax (Human PPAR-α): 12%
EC50 (Human PPAR-α): 3210 nM
Emax (Human PPAR-γ): 47%
EC50 (Human PPAR-γ): 1270 nM
Emax (Mouse PPAR-α): 11%
Emax (Mouse PPAR-γ): 117%
EC50 (Mouse PPAR-γ): 14500 nM

SMILES: CCO[C@@H](Cc1ccc(OCc2sc(-c3ccc(C4=NCCCO4)cc3)cc2C)cc1)C(=O)O [Example 19, (S)-3-(4-((5-(4-(5,6-dihydro-4H-1,3-oxazin-2-yl)phenyl)-3-methylthiophen-2-yl)methoxy)phenyl)-2-ethoxypropionic acid]
Emax (Human PPAR-α): 44%
EC50 (Human PPAR-α): 6570 nM
Emax (Human PPAR-γ): 43%
EC50 (Human PPAR-γ): 45 nM
Emax (Mouse PPAR-α): 19%
EC50 (Mouse PPAR-α): 6830 nM
Emax (Mouse PPAR-γ): 43%
EC50 (Mouse PPAR-γ): 281 nM

SMILES: CCO[C@@H](Cc1ccc(OCc2sc(-c3ccc(C4=Nc5ccccc5OC4)cc3)cc2C)cc1)C(=O)O [Example 23, (S)-3-(4-((5-(4-(2H-benzo[b][1,4]oxazin-3-yl)phenyl)-3-methylthiophen-2-yl)methoxy)phenyl)-2-ethoxypropionic acid]
Emax (Human PPAR-α): 44%
EC50 (Human PPAR-α): 2010 nM
Emax (Human PPAR-γ): 83%
EC50 (Human PPAR-γ): 65 nM
Emax (Mouse PPAR-α): 43%
EC50 (Mouse PPAR-α): 105 nM
Emax (Mouse PPAR-γ): 67%
EC50 (Mouse PPAR-γ): 165 nM

SMILES: CCO[C@@H](Cc1ccc(OCc2sc(-c3ccc(-c4nc(C)c(C)o4)cc3)cc2C)cc1)C(=O)O [Example 34, (S)-3-(4-((5-(4-(4,5-dimethyloxazol-2-yl)phenyl)-3-methylthiophen-2-yl)methoxy)phenyl)-2-ethoxypropionic acid]
Emax (Human PPAR-α): 31%
EC50 (Human PPAR-α): 476 nM
Emax (Human PPAR-γ): 75%
EC50 (Human PPAR-γ): 18 nM
Emax (Mouse PPAR-α): 31%
EC50 (Mouse PPAR-α): 3440 nM
Emax (Mouse PPAR-γ): 81%
EC50 (Mouse PPAR-γ): 176 nM

SMILES: CCO[C@@H](Cc1ccc(OCc2sc(-c3ccc(-c4cc(C(=O)NC)no4)cc3)cc2C)cc1)C(=O)O [Example 38, (S)-2-ethoxy-3-(4-((3-methyl-5-(4-(3-(methylcarbamoyl)isoxazol-5-yl)phenyl)thiophen-2-yl)methoxy)phenyl)propionic acid]
Emax (Human PPAR-α): 51%
EC50 (Human PPAR-α): 5140 nM
Emax (Human PPAR-γ): 68%
EC50 (Human PPAR-γ): 100 nM
Emax (Mouse PPAR-α): 49%
EC50 (Mouse PPAR-α): 5780 nM
Emax (Mouse PPAR-γ): 81%
EC50 (Mouse PPAR-γ): 180 nM

SMILES: CCO[C@@H](Cc1ccc(OCc2sc(-c3ccc(-c4cc(COC)no4)cc3)cc2C)cc1)C(=O)O [Example 40, (S)-2-ethoxy-3-(4-((5-(4-(3-(methoxymethyl)isoxazol-5-yl)phenyl)-3-methylthiophen-2-yl)methoxy)phenyl)propionic acid]
Emax (Human PPAR-α): 7%
Emax (Human PPAR-γ): 31%
EC50 (Human PPAR-γ): 19 nM
Emax (Mouse PPAR-α): 5%
Emax (Mouse PPAR-γ): 30%
EC50 (Mouse PPAR-γ): 109 nM

SMILES: CCO[C@@H](Cc1ccc(OCc2sc(-c3ccc(-c4cc(C)no4)cc3)nc2C)cc1)C(=O)O [Example 47, (S)-2-ethoxy-3-(4-((4-methyl-2-(4-(3-methylisoxazol-5-yl)phenyl)thiazol-5-yl)methoxy)phenyl)propionic acid]
Emax (Human PPAR-α): 60%
EC50 (Human PPAR-α): 1410 nM
Emax (Human PPAR-γ): 50%
EC50 (Human PPAR-γ): 82 nM
Emax (Mouse PPAR-α): 71%
EC50 (Mouse PPAR-α): 560 nM
Emax (Mouse PPAR-γ): 70%
EC50 (Mouse PPAR-γ): 208 nM

Next, values leading:

Emax (Human PPAR-α): 19%
EC50 (Human PPAR-α): 1400 nM
Emax (Human PPAR-γ): 45%
EC50 (Human PPAR-γ): 32 nM
Emax (Mouse PPAR-α): 23%
EC50 (Mouse PPAR-α): 4930 nM
Emax (Mouse PPAR-γ): 38%
EC50 (Mouse PPAR-γ): 84 nM
SMILES: CCO[C@@H](Cc1ccc(OCc2sc(-c3ccc(-c4csnn4)cc3)cc2C)cc1)C(=O)O [Example 24, (S)-3-(4-((5-(4-(1,2,3-thiadiazol-4-yl)phenyl)-3-methylthiophen-2-yl)methoxy)phenyl)-2-ethoxypropionic acid]

Emax (Human PPAR-α): 63%
EC50 (Human PPAR-α): 5240 nM
Emax (Human PPAR-γ): 48%
EC50 (Human PPAR-γ): 95 nM
Emax (Mouse PPAR-α): 35%
EC50 (Mouse PPAR-α): 443 nM
Emax (Mouse PPAR-γ): 48%
EC50 (Mouse PPAR-γ): 295 nM
SMILES: CCO[C@@H](Cc1ccc(OCc2sc(-c3ccc(-c4noc(C)n4)cc3)cc2C)cc1)C(=O)O [Example 25, (S)-2-ethoxy-3-(4-((3-methyl-5-(4-(5-methyl-1,2,4-oxadiazol-3-yl)phenyl)thiophen-2-yl)methoxy)phenyl)propionic acid]

Emax (Human PPAR-α): 52%
EC50 (Human PPAR-α): 1230 nM
Emax (Human PPAR-γ): 66%
EC50 (Human PPAR-γ): 49 nM
Emax (Mouse PPAR-α): 31%
EC50 (Mouse PPAR-α): 381 nM
Emax (Mouse PPAR-γ): 48%
EC50 (Mouse PPAR-γ): 118 nM
SMILES: CCO[C@@H](Cc1ccc(OCc2sc(-c3ccc(-c4nnn(C)n4)cc3)cc2C)cc1)C(=O)O [Example 29, (S)-2-ethoxy-3-(4-((3-methyl-5-(4-(2-methyl-2H-tetrazol-5-yl)phenyl)thiophen-2-yl)methoxy)phenyl)propionic acid]

Emax (Human PPAR-α): 21%
EC50 (Human PPAR-α): 478 nM
Emax (Human PPAR-γ): 25%
EC50 (Human PPAR-γ): 100 nM
Emax (Mouse PPAR-α): 10%
EC50 (Mouse PPAR-α): 3090 nM
Emax (Mouse PPAR-γ): 23%
EC50 (Mouse PPAR-γ): 57 nM
SMILES: CCO[C@@H](Cc1ccc(OCc2sc(-c3ccc(-c4nnn(C(C)C)n4)cc3)cc2C)cc1)C(=O)O [Example 31, (S)-2-ethoxy-3-(4-((5-(4-(2-isopropyl-2H-tetrazol-5-yl)phenyl)-3-methylthiophen-2-yl)methoxy)phenyl)propionic acid]
